Test systems include A498 renal; HCT-116 colon; HT29 colon; IGROV1 ovarian; K-562 leukemia; KM12 colon; OVCAR-5 ovarian; SNB-19 CNS; TK-10 renal; UO-31 renal.
Holding throughout (experiment): growth of human tumour cells (NCI), 48 h

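Values below derive from 48-hour exposures of cells grown in 96-well plates, with endpoints linearly interpolated between the two concentrations bracketing the appropriate inhibition level. Here, GI50 denotes the concentration required for 50% inhibition of growth. TGI: total growth inhibition.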 Bounds are passed on as bounds.

In the case of `CC(=O)O[C@H]1CCc2c(cc(N)c3c2C(=O)C[C@]2(C)C([C@H](C)CCCC(C)C)CCC32C)C1(C)C` (stereo not given in full), the TGI with A498 renal, in the test with HCT-116 colon, in the test on HT29 colon, in the test with IGROV1 ovarian, with K-562 leukemia and with KM12 colon was more than 100 µM each time. In addition, the TGI in the test on OVCAR-5 ovarian, in the test with SNB-19 CNS, in the test on TK-10 renal and in the test with UO-31 renal was more than 100 µM in each case.

Turning to `O=C(/C=C/c1ccccc1)c1ccc(NCc2nc3ccccc3[nH]2)cc1`, the TGI in the test with A498 renal is 18.3 µM; in the test with HCT-116 colon, 13 µM; with HT29 colon, 7.73 µM; in the test with IGROV1 ovarian, 19.8 µM; in the test with K-562 leukemia it was more than 26.1 µM; in the test on KM12 colon, 4.54 µM. The TGI in the test on OVCAR-5 ovarian came to 23.2 µM; in the test with SNB-19 CNS, 15.9 µM; with TK-10 renal, 24 µM; in the test on UO-31 renal, 20.2 µM.

Take `CC(C)CCC1(CCN)C(=O)NC(=O)NC1=O`: the TGI in the test with A498 renal, in the test on HCT-116 colon, in the test on HT29 colon, in the test with IGROV1 ovarian, with K-562 leukemia and with KM12 colon was more than 100 µM each time. In addition, the TGI in the test on OVCAR-5 ovarian, with SNB-19 CNS, in the test with TK-10 renal and with UO-31 renal was more than 100 µM throughout.

As for `Cc1cc(I)cc(CN(C)CCCN2CCCC2)c1O`, the GI50 is 14.8 µM in the test with A498 renal; 15.5 µM in the test on HCT-116 colon; 9.52 µM with HT29 colon; 19.5 µM with IGROV1 ovarian; 14.5 µM with K-562 leukemia; 20.3 µM in the test on KM12 colon. In addition, the GI50 with OVCAR-5 ovarian was 27.8 µM; with SNB-19 CNS it was 27.6 µM; in the test with TK-10 renal it was 17 µM; with UO-31 renal, 20 µM. The TGI worked out at 33.6 µM with A498 renal; 55.6 µM in the test with HCT-116 colon; 24.4 µM in the test on HT29 colon; 44.7 µM in the test on IGROV1 ovarian; 33.2 µM with K-562 leukemia; 46 µM in the test on KM12 colon. In addition, the TGI in the test on OVCAR-5 ovarian is more than 94.7 µM; in the test on SNB-19 CNS, more than 80.4 µM; in the test with TK-10 renal, 36 µM; with UO-31 renal it was more than 60.9 µM.

`COC(=O)C1(C)Cc2cc(OC(C)=O)c(OC(C)=O)cc2N1` (stereo not given): the GI50 with A498 renal was 37.8 µM; in the test on HCT-116 colon, 3.96 µM; with HT29 colon it was 13 µM; in the test with IGROV1 ovarian it was 5.93 µM; in the test on K-562 leukemia, 3.67 µM; with KM12 colon it was 20.2 µM. Moreover, the GI50 with OVCAR-5 ovarian is 20 µM; in the test with SNB-19 CNS it was more than 61.9 µM; in the test with TK-10 renal, 11.1 µM; in the test with UO-31 renal, 3.59 µM. In addition, the TGI in the test on A498 renal is more than 90.7 µM; in the test with HCT-116 colon it was 15.5 µM; in the test with HT29 colon, 56.7 µM; in the test with IGROV1 ovarian it was 13.9 µM; in the test on K-562 leukemia, more than 100 µM; with KM12 colon, 51.6 µM. Also, the TGI was 47 µM with OVCAR-5 ovarian, more than 100 µM with SNB-19 CNS, 44.1 µM in the test with TK-10 renal and 21.9 µM in the test on UO-31 renal.

With `COC(=O)C(/C(=N\O)C(=O)Nc1cccc(Cl)c1C)c1cnc2ccccc2n1` (stereo not given), the TGI in the test with A498 renal, in the test with HCT-116 colon, in the test with HT29 colon, in the test with IGROV1 ovarian, in the test on K-562 leukemia and in the test on KM12 colon was more than 100 µM throughout. The TGI in the test on OVCAR-5 ovarian, with SNB-19 CNS, with TK-10 renal and in the test with UO-31 renal was more than 100 µM each time.

With `CSC(=S)N/N=C/c1nccc2ccccc12`, the TGI with A498 renal was 13.6 µM; in the test on HCT-116 colon it was more than 100 µM; in the test with HT29 colon, more than 67.5 µM; with IGROV1 ovarian it was 8.05 µM; in the test with K-562 leukemia, 14.3 µM; with KM12 colon it was 15.6 µM. Further, the TGI in the test on OVCAR-5 ovarian is 8.96 µM; in the test with SNB-19 CNS it was more than 27.1 µM; with TK-10 renal, 62.9 µM; with UO-31 renal it was 9.4 µM.

As for `O=C1CCCCN1CCCCC#Cc1cccc(C#Cc2cccnc2)c1`, the GI50 was 42.8 µM with A498 renal; 4.67 µM in the test on HCT-116 colon; 11.9 µM in the test with HT29 colon; 14.7 µM in the test on IGROV1 ovarian; 14.7 µM in the test with K-562 leukemia; 20.4 µM in the test with KM12 colon. The GI50 in the test on OVCAR-5 ovarian is 17.7 µM; in the test on SNB-19 CNS it was 13 µM; in the test on TK-10 renal, 49.8 µM; with UO-31 renal, 5.97 µM. Moreover, the TGI is more than 100 µM in the test on A498 renal; 18.4 µM in the test on HCT-116 colon; 40 µM in the test on HT29 colon; 43.1 µM in the test on IGROV1 ovarian; more than 100 µM in the test with K-562 leukemia; more than 100 µM in the test with KM12 colon. The TGI in the test on OVCAR-5 ovarian is 41.7 µM; with SNB-19 CNS, 27.2 µM; in the test on TK-10 renal, more than 100 µM; in the test with UO-31 renal, 23 µM.

Take `CCN(C(=O)/C=C/c1ccco1)c1ccccc1`: the TGI in the test on A498 renal, in the test with HCT-116 colon, in the test with HT29 colon, in the test on IGROV1 ovarian, in the test with K-562 leukemia and in the test with KM12 colon was more than 100 µM throughout. The TGI with OVCAR-5 ovarian, with SNB-19 CNS, with TK-10 renal and in the test with UO-31 renal was more than 100 µM each time.

On to `O=[N+]([O-])c1ccc(-c2ccc(-c3csc(Nc4ccccc4)n3)o2)cc1`, for which the TGI in the test with A498 renal is 34.5 µM; with HCT-116 colon, 47 µM; with HT29 colon it was 49.7 µM; in the test on IGROV1 ovarian, more than 63.9 µM; in the test with K-562 leukemia, 32.1 µM; in the test on KM12 colon, 38.3 µM. The TGI is 31.6 µM in the test on OVCAR-5 ovarian, more than 65.8 µM in the test with SNB-19 CNS, 33.3 µM in the test on TK-10 renal and 39 µM with UO-31 renal.

With `CC(C)(C)OC(=O)NCCCCCCCn1c2c(c3ccccc3c1=O)C(=O)c1ccccc1-2`, the GI50 in the test with A498 renal was 4.74 µM; in the test on HCT-116 colon it was 17.6 µM; in the test with HT29 colon, 37.6 µM; in the test on IGROV1 ovarian, 26.9 µM; in the test on K-562 leukemia, 42.7 µM; in the test with KM12 colon, 60.6 µM. The GI50 was more than 100 µM in the test on OVCAR-5 ovarian, 32.5 µM in the test on SNB-19 CNS, 38.3 µM with TK-10 renal and 25.6 µM with UO-31 renal. Besides, the TGI in the test with A498 renal is 42.2 µM; in the test with HCT-116 colon, 66.6 µM; with HT29 colon, more than 100 µM; with IGROV1 ovarian, more than 100 µM; in the test with K-562 leukemia, more than 100 µM; with KM12 colon it was more than 100 µM. In addition, the TGI with OVCAR-5 ovarian, in the test on SNB-19 CNS, in the test with TK-10 renal and in the test with UO-31 renal was more than 100 µM throughout.

For the compound `C=C1C(O)CC[C@]2(C)C1C1OC(C)(C)O[C@]13CC(=O)C(C)=C([C@H]1OC(C)(C)OC12)C3(C)C` (stereo not given in full), the TGI with A498 renal, in the test with HCT-116 colon, in the test on HT29 colon, in the test with IGROV1 ovarian, with K-562 leukemia and in the test with KM12 colon was more than 100 µM in each case. For the same compound, the TGI in the test with OVCAR-5 ovarian, in the test with SNB-19 CNS, with TK-10 renal and in the test on UO-31 renal was more than 100 µM in each case.

With `CN(C)C(=O)O[C@H]1CN[C@H](C#Cc2cc3ncnc(Nc4ccc(OCc5cccc(F)c5)c(Cl)c4)c3s2)C1`, the GI50 in the test on A498 renal was 4.19 µM; in the test with HCT-116 colon, 12.1 µM; in the test on HT29 colon, more than 23 µM; in the test with IGROV1 ovarian it was 4.61 µM; with K-562 leukemia, more than 17.1 µM; with KM12 colon it was 7.37 µM. Further, the GI50 was more than 25 µM in the test with OVCAR-5 ovarian, more than 19.7 µM in the test with SNB-19 CNS, 0.765 µM in the test with TK-10 renal and 4.04 µM in the test with UO-31 renal. For the same compound, the TGI in the test on A498 renal was 23.3 µM; in the test with HCT-116 colon it was more than 25 µM; with HT29 colon, more than 25 µM; in the test on IGROV1 ovarian, more than 25 µM; in the test with K-562 leukemia, more than 25 µM; with KM12 colon, more than 25 µM. Further, the TGI with OVCAR-5 ovarian was more than 25 µM; in the test on SNB-19 CNS, more than 25 µM; in the test with TK-10 renal it was more than 17.4 µM; in the test with UO-31 renal it was more than 23.9 µM.

Turning to `O=c1oc2ccc(I)cc2c(=O)n1-c1ccc(Cl)cc1F`, the GI50 was 0.141 µM with A498 renal; 1.21 µM in the test with HCT-116 colon; 3.4 µM with HT29 colon; 1.19 µM in the test on IGROV1 ovarian; 0.658 µM in the test with K-562 leukemia; 2.22 µM in the test with KM12 colon. Also, the GI50 was 3.96 µM with OVCAR-5 ovarian, 0.64 µM with SNB-19 CNS, 4.09 µM in the test on TK-10 renal and 0.301 µM in the test with UO-31 renal. Also, the TGI was 0.7 µM with A498 renal; 3.86 µM in the test on HCT-116 colon; 18.7 µM with HT29 colon; 21.1 µM in the test on IGROV1 ovarian; more than 100 µM in the test with K-562 leukemia; 5.39 µM in the test on KM12 colon. The TGI in the test on OVCAR-5 ovarian is 74.1 µM; in the test with SNB-19 CNS, 58.7 µM; in the test on TK-10 renal, 16.9 µM; with UO-31 renal, 3.24 µM.

Values taken from PubChem BioAssay (NCI).
